Experimental data: article PMC4965013, “Open Source Drug Discovery with the Malaria Box Compound Collection for Neglected Diseases and Beyond” (PLoS Pathogens, 2016)
Where two headings read alike, the source gives them in different places.

What was measured:
[1] = tested on: P. falciparum 3D7 trophozoites; assay: Metabolomic fingerprint profiling LC-MS; format: cell-based, Plasmodium falciparum; design: UDP-D-glucose / ADP-D-glucose: unit not given here; conditions: for Acetyllysine / N-acetyl-L-ornithine / N-carbamoyl-L-aspartate / NADPH / dAMP / dCMP / dTDP / dTMP / dTTP / dihydroorotate / orotate / DLH / DLS/SDL/SID / PD / PEE / PVNF / 3-phosphoglycerate / ADP-D-glucose / ATP / CDP / D-sedoheptulose-1/7-phosphate / FAD / GMP / NAD+ / NADP+ / Octoluse Bisphosphate / Pyroglutamic acid / UDP-D-glucose / UDP-D-glucuronate / UDP-N-acetyl-glucosamine / UDP / UMP / UTP / a-ketoglutarate / citrate/isocitrate / cytidine / dATP / dGMP/AMP / fumarate / glucose-1/6-phosphate / glycerate / guanine / guanosine / hypoxanthine / indole / inosine / nicotinate / ornithine / phosphoenolpyruvate / pyruvate / ribose-phosphate / sarcosine/alanine / sn-glycerol-3-phosphate / succinate/methylmalonic acid / uridine / xanthosine: S2 Table Metabolomics; for Acetyllysine: metabolite Acetyllysine; for N-acetyl-L-ornithine: metabolite N-acetyl-L-ornithine; for N-carbamoyl-L-aspartate: metabolite N-carbamoyl-L-aspartate; for NADPH: metabolite NADPH; for dAMP: metabolite dAMP; for dCMP: metabolite dCMP; for dTDP: metabolite dTDP; for dTMP: metabolite dTMP; for dTTP: metabolite dTTP; for dihydroorotate: metabolite dihydroorotate; for orotate: metabolite orotate; for DLH: peptide DLH; for DLS/SDL/SID: peptide DLS/SDL/SID; for PD: peptide PD; for PEE: peptide PEE; for PVNF: peptide PVNF; for 3-phosphoglycerate: metabolite 3-phosphoglycerate; for ADP-D-glucose: metabolite ADP-D-glucose; for ATP: metabolite ATP; for CDP: metabolite CDP; for CDP / D-sedoheptulose-1/7-phosphate / GMP / Octoluse Bisphosphate / UDP / UMP / UTP / citrate/isocitrate / dGMP/AMP / fumarate / glucose-1/6-phosphate / glycerate / guanine / guanosine / inosine / pyruvate / sarcosine/alanine / succinate/methylmalonic acid / uridine / xanthosine: change in metabolite level after compound treatment; for D-sedoheptulose-1/7-phosphate: metabolite D-sedoheptulose-1/7-phosphate; for FAD: metabolite FAD; for GMP: metabolite GMP; for NAD+: metabolite NAD+; for NADP+: metabolite NADP+; for Octoluse Bisphosphate: metabolite Octoluse Bisphosphate; for Pyroglutamic acid: metabolite Pyroglutamic acid; for UDP-D-glucose: metabolite UDP-D-glucose; for UDP-D-glucuronate: metabolite UDP-D-glucuronate; for UDP-N-acetyl-glucosamine: metabolite UDP-N-acetyl-glucosamine; for UDP: metabolite UDP; for UMP: metabolite UMP; for UTP: metabolite UTP; for a-ketoglutarate: metabolite a-ketoglutarate; for citrate/isocitrate: metabolite citrate/isocitrate; for cytidine: metabolite cytidine; for dATP: metabolite dATP; for dGMP/AMP: metabolite dGMP/AMP; for fumarate: metabolite fumarate; for glucose-1/6-phosphate: metabolite glucose-1/6-phosphate; for glycerate: metabolite glycerate; for guanine: metabolite guanine; for guanosine: metabolite guanosine; for hypoxanthine: metabolite hypoxanthine; for indole: metabolite indole; for inosine: metabolite inosine; for 2_3-Diphosphoglyceric acid / 4-phosphopantothenate / 6-phospho-D-gluconate / FMN / IMP / Pyrophosphate / Sedoheptoluse bisphosphate / cyclic-AMP / glutathione disulfide / lactate / myo-inositol: metabolite level change after treatment; for nicotinate: metabolite nicotinate; for ornithine: metabolite ornithine; for phosphoenolpyruvate: metabolite phosphoenolpyruvate; for pyruvate: metabolite pyruvate; for ribose-phosphate: metabolite ribose-phosphate; for sarcosine/alanine: metabolite sarcosine/alanine; for sn-glycerol-3-phosphate: metabolite sn-glycerol-3-phosphate; for succinate/methylmalonic acid: metabolite succinate/methylmalonic acid; for uridine: metabolite uridine; for xanthosine: metabolite xanthosine
P. falciparum = assay: EC50 listed in S2 Table Metabolomics (used to set the concentration tested); format: cell-based; conditions: Plasmodium falciparum; EC50 used for Factor_XEC50 in metabolomics; read-out: EC50_nM
P. falciparum 3D7 = assay: [3H]-hypoxanthine growth inhibition, modified HCO3- or O2; format: cell-based; conditions: for IC50: Plasmodium falciparum
[2] = 3D7, read-out: P. falciparum 3D7 IC50 HCO3- (2g/L), standard media
[3] = 3D7, HCO3- reduced media, read-out: P. falciparum 3D7 IC50 HCO3- reduced

## Cc1cc(C)cc(Nc2cc(C)nc3nc(C(F)(F)F)nn23)c1 [MMV011259]
[1]
  Acetyllysine: -0.3746
  N-acetyl-L-ornithine: -0.3462
  N-carbamoyl-L-aspartate: 3.644
  NADPH: -0.3366
  dAMP: -0.7598
  dCMP: -0.2996
  dTDP: -1.147
  dTMP: -1.715
  dTTP: -1.159
  dihydroorotate: 4.069
  orotate: -1.5889
  DLH: -0.4322
  DLS/SDL/SID: -0.5334
  PD: -0.3116
  PEE: -0.461
  PVNF: -0.5009
  3-phosphoglycerate: -0.8854
  ADP-D-glucose: -0.2124
  ATP: -0.1449
  CDP: -0.8411
  D-sedoheptulose-1/7-phosphate: 0.2305
  FAD: -0.12
  GMP: 0.1977
  NAD+: -0.2042
  NADP+: -0.294
  Octoluse Bisphosphate: -0.4132
  Pyroglutamic acid: -0.07042
  UDP-D-glucose: -0.2997
  UDP-D-glucuronate: -0.2701
  UDP-N-acetyl-glucosamine: -0.5126
  UDP: -1.399
  UMP: -1.28
  UTP: -1.133
  a-ketoglutarate: -0.631
  citrate/isocitrate: -1.3117
  cytidine: 0.1757
  dATP: 0.0538
  dGMP/AMP: -0.551
  fumarate: -0.9126
  glucose-1/6-phosphate: -0.8385
  glycerate: -1.011
  guanine: -0.4133
  guanosine: -0.4081
  hypoxanthine: -0.3413
  indole: -0.1801
  inosine: -0.6501
  2_3-Diphosphoglyceric acid: -0.2003
  4-phosphopantothenate: -0.5735
  6-phospho-D-gluconate: -1.0674
  FMN: -0.3875
  IMP: -0.2517
  Pyrophosphate: -0.0001746
  Sedoheptoluse bisphosphate: -0.416
  cyclic-AMP: -0.9316
  glutathione disulfide: -0.2721
  lactate: -0.3904
  myo-inositol: -0.254
  nicotinate: -0.9132
  ornithine: -0.1147
  phosphoenolpyruvate: -0.7531
  pyruvate: -0.8729
  ribose-phosphate: -0.4441
  sarcosine/alanine: -0.2762
  sn-glycerol-3-phosphate: -0.2294
  succinate/methylmalonic acid: -0.3522
  uridine: -1.619
  xanthosine: -0.6868
P. falciparum
  EC50: 85.7 nM
P. falciparum 3D7
  fold change (IC50reduced/IC50normal): 2.2
P. falciparum 3D7; [2]
  IC50: 59 nM
P. falciparum 3D7; [3]
  IC50: 132 nM

## CCN(CC)CCNc1ncnc2c1[nH]c1ccc(Cl)cc12 [MMV396703]
[1]
  Acetyllysine: -0.2691
  N-acetyl-L-ornithine: -0.2168
  N-carbamoyl-L-aspartate: 1.148
  NADPH: -0.09375
  dAMP: 0.7031
  dCMP: -0.6066
  dTDP: 0.1301
  dTMP: 0.2768
  dTTP: -0.448
  dihydroorotate: 1.736
  orotate: -0.221
  DLH: -2.825
  DLS/SDL/SID: -3.008
  PD: -0.5054
  PEE: -0.1284
  PVNF: -2.309
  3-phosphoglycerate: -0.08336
  ADP-D-glucose: -0.05094
  ATP: -0.4333
  CDP: 0.1613
  D-sedoheptulose-1/7-phosphate: 0.02906
  FAD: -0.01537
  GMP: -0.5327
  NAD+: 0.6915
  NADP+: -0.1108
  Octoluse Bisphosphate: -0.5568
  Pyroglutamic acid: -0.07773
  UDP-D-glucose: 0.04104
  UDP-D-glucuronate: -0.19
  UDP-N-acetyl-glucosamine: 0.01931
  UDP: 0.1008
  UMP: -0.1897
  UTP: -0.3667
  a-ketoglutarate: -0.2121
  citrate/isocitrate: -0.02741
  cytidine: -0.169
  dATP: -0.3924
  dGMP/AMP: 0.4109
  fumarate: 0.899
  glucose-1/6-phosphate: 0.3195
  glycerate: 0.2766
  guanine: 0.5966
  guanosine: 0.5739
  hypoxanthine: -0.03794
  indole: -0.04008
  inosine: 0.01185
  2_3-Diphosphoglyceric acid: -0.2785
  4-phosphopantothenate: 0.1971
  6-phospho-D-gluconate: -0.09007
  FMN: -0.3587
  IMP: 0.3624
  Pyrophosphate: -0.1133
  Sedoheptoluse bisphosphate: 0.1128
  cyclic-AMP: -0.07748
  glutathione disulfide: -0.04771
  lactate: -0.382
  myo-inositol: -0.001865
  nicotinate: 0.1485
  ornithine: 0.2269
  phosphoenolpyruvate: -0.03548
  pyruvate: -0.182
  ribose-phosphate: -0.3286
  sarcosine/alanine: -0.1738
  sn-glycerol-3-phosphate: -0.2165
  succinate/methylmalonic acid: -0.02068
  uridine: -0.05174
  xanthosine: -0.494
P. falciparum
  EC50: 406 nM
P. falciparum 3D7
  fold change (IC50reduced/IC50normal): 2.6
P. falciparum 3D7; [2]
  IC50: 326 nM
P. falciparum 3D7; [3]
  IC50: 851 nM

## CCN(CC)CCNc1ccnc2cc(Cl)ccc12 [MMV006087]
[1]
  Acetyllysine: -0.6709
  N-acetyl-L-ornithine: -0.3158
  N-carbamoyl-L-aspartate: 0.2408
  NADPH: 1.332
  dAMP: 1.732
  dCMP: 0.4187
  dTDP: 0.1999
  dTMP: 1.797
  dTTP: -0.4289
  dihydroorotate: 0.1541
  orotate: -0.4098
  DLH: -1.609
  DLS/SDL/SID: -1.645
  PD: -0.5241
  PEE: 0.8188
  PVNF: -2.104
  3-phosphoglycerate: -0.1063
  ADP-D-glucose: 0.134
  ATP: -0.2173
  CDP: 0.2969
  D-sedoheptulose-1/7-phosphate: -0.3976
  FAD: -0.08711
  GMP: 0.04645
  NAD+: -0.09966
  NADP+: 0.09641
  Octoluse Bisphosphate: 0.7357
  Pyroglutamic acid: -0.2816
  UDP-D-glucose: -0.03029
  UDP-D-glucuronate: -0.03795
  UDP-N-acetyl-glucosamine: -0.1287
  UDP: -0.01186
  UMP: -0.1675
  UTP: -0.4234
  a-ketoglutarate: -1.012
  citrate/isocitrate: -0.5672
  cytidine: 0.4735
  dATP: -0.2015
  dGMP/AMP: 1.373
  fumarate: -0.3281
  glucose-1/6-phosphate: -0.3642
  glycerate: -1.245
  guanine: -0.2729
  guanosine: -1.735
  hypoxanthine: 0.3732
  indole: 0.02177
  inosine: -0.5366
  2_3-Diphosphoglyceric acid: -0.3682
  4-phosphopantothenate: -0.474
  6-phospho-D-gluconate: -0.3619
  FMN: 0.01066
  IMP: -0.05089
  Pyrophosphate: -0.2464
  Sedoheptoluse bisphosphate: 1.503
  cyclic-AMP: -0.4094
  glutathione disulfide: -0.5661
  lactate: -0.8938
  myo-inositol: -1.322
  nicotinate: -1.055
  ornithine: 0.317
  phosphoenolpyruvate: -0.3268
  pyruvate: -1.42
  ribose-phosphate: -0.4165
  sarcosine/alanine: -0.8094
  sn-glycerol-3-phosphate: -0.2401
  succinate/methylmalonic acid: -0.2149
  uridine: -1.004
  xanthosine: -1.365
P. falciparum
  EC50: 58.1 nM
P. falciparum 3D7
  fold change (IC50normal/ IC50hypoxia): 2.2
  fold change (IC50reduced/IC50normal): 2.0
P. falciparum 3D7; 3D7, read-out: P. falciparum 3D7 IC50 1% O2, 1% O2 hypoxia
  IC50: 18 nM
P. falciparum 3D7; 3D7, read-out: P. falciparum 3D7 IC50 5% O2
  IC50: 40 nM
P. falciparum 3D7; [2]
  IC50: 46 nM
P. falciparum 3D7; [3]
  IC50: 94 nM
